In ChEMBL document CHEMBL4715849, “Recent Progress in the Discovery of Antifungal Agents Targeting the Cell Wall” (J Med Chem, 2020):
Values after ≈ are worked out from the molar mass of the structure shown.

Assays:
[1] = Inhibition of Saccharomyces cerevisiae CGMCC 2.145 CHS using UDP-GlcNAc as substrate incubated for 60 min by WGA-HRP tracer based method
[2] = Toxicity in iv dosed mouse; type: organism-based; settings: in vivo
Candida albicans [3] = assay: Antifungal activity against Candida albicans AMB-25 incubated for 48 hrs by serial two-fold dilution method; type: functional
Candida albicans [4] = assay: Antifungal activity against Candida albicans ATCC2001 incubated for 2 day by NCCLS M27-A2 microdilution method; type: functional; settings: ATCC2001, 48 h
Aspergillus fumigatus [5] = assay: Antifungal activity against Aspergillus fumigatus CF1083 incubated for 1 day by NCCLS M27-A2 microdilution method; type: functional; settings: CF1083, 24 h
Candida albicans [6] = assay: Antifungal activity against Candida albicans IFO0005 incubated for 3 day by NCCLS M27-A2 microdilution method; type: functional; settings: IFO0005, 72 h
Aspergillus fumigatus [7] = assay: Antifungal activity against Aspergillus fumigatus CF1003 incubated for 1 day by NCCLS M27-A2 microdilution method; type: functional; settings: CF1003, 24 h
Candida albicans [8] = assay: Antifungal activity against Candida albicans ATCC 48130 incubated for 1 day by NCCLS M27-A2 microdilution method; type: functional; settings: ATCC 48130, 24 h
[9] = Inhibition of Candida albicans IFO1060 1,3-beta-D-glucan synthase using UDP-[6-3H]-glucose as substrate incubated for 30 mins by radioactivity
Aspergillus fumigatus [10] = assay: Antifungal activity against Aspergillus fumigatus CF924390 incubated for 1 day by NCCLS M27-A2 microdilution method; type: functional; settings: CF924390, 24 h
Candida albicans [11] = assay: Antifungal activity against Candida albicans CY1124 incubated for 1 day by NCCLS M27-A2 microdilution method; type: functional; settings: CY1124, 24 h
Candida albicans [12] = assay: Antifungal activity against Candida albicans CY1123 incubated for 1 day by NCCLS M27-A2 microdilution method; type: functional; settings: CY1123, 24 h
Candida albicans [13] = assay: Antifungal activity against Candida albicans CY3003 incubated for 1 day by NCCLS M27-A2 microdilution method; type: functional; settings: CY3003, 24 h
Candida tropicalis = assay: Antifungal activity against Candida tropicalis incubated for 24 hrs by serial 2-fold dilution method; type: functional
Nakaseomyces glabratus [14] = assay: Antifungal activity against Candida glabrata incubated for 24 hrs by serial 2-fold dilution method; type: functional
Candida albicans [15] = assay: Antifungal activity against Candida albicans incubated for 24 hrs by serial 2-fold dilution method; type: functional
Candida albicans [16] = assay: Antifungal activity against Candida albicans CY1002 by NCCLS-based M27-A broth microdilution method; type: functional
Aspergillus fumigatus [17] = assay: Antifungal activity against Aspergillus fumigatus CF1003 by NCCLS-based M27-A broth microdilution method; type: functional
Nakaseomyces glabratus [18] = assay: Antifungal activity against Candida glabrata MY1381 by CLSI method; type: functional
Candida parapsilosis = assay: Antifungal activity against Candida parapsilosis ATCC22019 by CLSI method; type: functional; settings: Lodderomyces parapsilosis
Aspergillus fumigatus [19] = assay: Antifungal activity against Aspergillus fumigatus MF5668 by CLSI method; type: functional
Candida albicans [20] = assay: Antifungal activity against Candida albicans Ca1055 by CLSI method; type: functional
Candida albicans [21] = assay: Antifungal activity against Candida albicans Ca2323/ORF6.945 by CLSI method; type: functional
Pichia kudriavzevii = assay: Antifungal activity against Candida krusei ATCC 6258 by CLSI method; type: functional
Clavispora lusitaniae = assay: Antifungal activity against Candida lusitaniae MY1396 by CLSI method; type: functional
Candida albicans [22] = assay: Antifungal activity against Candida albicans CY1002 infected in iv dosed ICR mouse administered as single dose measured on day 7; type: functional; settings: 168 h, time 7 day
[23] = Inhibition of Candida albicans IFO1060 1,3-beta-D-glucan synthase
Candida albicans [24] = assay: Antifungal activity against Candida albicans […] by NCCLS protocol based broth M27-A microdilution method; type: functional, organism-based
Nakaseomyces glabratus [25] = assay: Antifungal activity against Candida glabrata incubated for 24 hrs by serial dilution method; type: functional
Candida albicans [26] = assay: Antifungal activity against Candida albicans ATCC 26278 incubated for 24 hrs by serial dilution method; type: functional
Vanrija humicola = assay: Antifungal activity against Candida humicola incubated for 24 hrs by serial dilution method; type: functional
Debaryomyces hansenii = assay: Antifungal activity against Candida famata incubated for 24 hrs by serial dilution method; type: functional
[27] = Inhibition of Candida albicans glucosamine-6-phosphate synthase by Elson-Morgan method
Candida albicans [28] = assay: Antifungal activity against Candida albicans ATCC 10261 incubated for 24 hrs by serial dilution method; type: functional

**Q.** For `COc1ccc(N2CCN(C(=O)[C@H](O)[C@@H](O)C(=O)Nc3c(O)c4cc(O)ccc4oc3=O)CC2)cc1`, which IC50 [1] is on record?
**A.** Its IC50 is 100 µM.

**Q.** What does the source list for `CCC[C@H](N)C(=O)N[C@@H](CNC(=O)/C=C/C(=O)OC)C(=O)O`?
**A.** LD50 [2]: > 300 mg/kg; MIC (Candida albicans [3]): 0.4 µg/mL (≈ 1.27 µM)

**Q.** With `O=C(Nc1c(F)cccc1F)OCCCN1CCN(c2nc3ccccc3s2)CC1` as the molecule, how does the MIC (Candida albicans [4]) read?
**A.** Its MIC is 0.17 µg/mL (≈ 0.393 µM).

**Q.** What about the MIC (Aspergillus fumigatus [5]) of the same molecule?
**A.** The MIC was 0.15 µg/mL (≈ 0.347 µM).

**Q.** What about the MIC (Candida albicans [6]) of the same molecule?
**A.** Its MIC is 0.17 µg/mL (≈ 0.393 µM).

**Q.** And the MIC (Aspergillus fumigatus [7])?
**A.** Its MIC is 0.15 µg/mL (≈ 0.347 µM).

**Q.** And the MIC (Candida albicans [8])?
**A.** Its MIC is 0.26 µg/mL (≈ 0.601 µM).

**Q.** And the IC50 [9]?
**A.** Its IC50 is 0.16 µM.

**Q.** What about the MIC (Aspergillus fumigatus [10]) of the same molecule?
**A.** Its MIC is 0.15 µg/mL (≈ 0.347 µM).

**Q.** And the MIC (Candida albicans [11])?
**A.** Its MIC is 0.26 µg/mL (≈ 0.601 µM).

**Q.** And the MIC (Candida albicans [12])?
**A.** Its MIC is 0.26 µg/mL (≈ 0.601 µM).

**Q.** And the MIC (Candida albicans [13])?
**A.** Its MIC is 0.26 µg/mL (≈ 0.601 µM).

**Q.** Which results are given for `COC(=O)/C=C/C(=O)NC[C@H](NC(=O)CN(CCOC(C)=O)CCOC(C)=O)C(=O)OCOC(=O)Cc1ccccc1.Cl`?
**A.** MIC (Candida tropicalis): 31.3 µg/mL; MIC (Nakaseomyces glabratus [14]): 125 µg/mL; MIC (Candida albicans [15]): 31.3 µg/mL

**Q.** For `C[C@@H]([C@H](N)C(=O)N[C@H](C(=O)O)[C@H]1O[C@@H](n2ccc(=O)[nH]c2=O)[C@H](O)[C@@H]1O)[C@H](O)c1ccc(O)cn1` [NIKKOMYCIN], which MIC50 (Candida albicans [16]) is on record?
**A.** The MIC50 was 12 µg/mL (≈ 24.2 µM).

**Q.** And the MIC50 (Aspergillus fumigatus [17])?
**A.** Its MIC50 is 11 µg/mL (≈ 22.2 µM).

**Q.** With `C=C1[C@@H]2C[C@@H]3[C@H](C(C)C)[C@@H](OC(=O)CC(C)(O)CC(C)CC)C[C@@]3(C)C[C@H]2/C(C)=C\C[C@@H]2[C@@H](C)OC(=O)[C@H](O)[C@]12O` (some centres undefined) as the molecule, how does the MIC (Nakaseomyces glabratus [18]) read?
**A.** Its MIC is 0.5 µg/mL (≈ 0.87 µM).

**Q.** What about the MIC (Candida parapsilosis) of the same molecule?
**A.** The MIC was 0.5 µg/mL (≈ 0.87 µM).

**Q.** And the MIC (Aspergillus fumigatus [19])?
**A.** The MIC was 0.25 µg/mL (≈ 0.435 µM).

**Q.** And the MIC (Candida albicans [20])?
**A.** Its MIC is 0.5 µg/mL (≈ 0.87 µM).

**Q.** And the MIC (Candida albicans [21])?
**A.** Its MIC is 0.5 µg/mL (≈ 0.87 µM).

**Q.** And the MIC (Pichia kudriavzevii)?
**A.** The MIC was 1 µg/mL (≈ 1.74 µM).

**Q.** What about the MIC (Clavispora lusitaniae) of the same molecule?
**A.** Its MIC is 0.25 µg/mL (≈ 0.435 µM).

**Q.** With `CCCCCCCCCCCCC[C@H]1OC(=O)[C@H](CCCN)NC(=O)[C@@H]([C@@H](C)O)NC(=O)CNC(=O)[C@H]([C@H](O)CCN)NC(=O)[C@H]2[C@@H](O)CCN2C(=O)[C@H]([C@@H](C)O)NC(=O)[C@@H]2C[C@@H](O)CN2C(=O)[C@H](C(C)C)NC(=O)[C@H](Cc2ccc(O)cc2)NC(=O)[C@@H](C)NC(=O)[C@H]([C@@H](C)O)NC1=O` as the molecule, how does the ED50 (Candida albicans [22]) read?
**A.** The ED50 was 0.04 mg/kg.

**Q.** What about the IC50 [23] of the same molecule?
**A.** Its IC50 is 0.006 µM.

**Q.** And the IC50 (Candida albicans [24])?
**A.** The IC50 was 0.01 µg/mL (≈ 0.00712 µM).

**Q.** For `COP(=O)(OC)OC[C@@H](O)[C@@H](O)[C@H](O)[C@@H](N)CO`, which MIC (Nakaseomyces glabratus [25]) is on record?
**A.** Its MIC is 300 µg/mL (≈ 1040 µM).

**Q.** What about the MIC (Candida albicans [26]) of the same molecule?
**A.** The MIC was 300 µg/mL (≈ 1040 µM).

**Q.** What about the MIC (Vanrija humicola) of the same molecule?
**A.** The MIC was 300 µg/mL (≈ 1040 µM).

**Q.** What about the MIC (Debaryomyces hansenii) of the same molecule?
**A.** Its MIC is 300 µg/mL (≈ 1040 µM).

**Q.** And the IC50 [27]?
**A.** Its IC50 is 4750 µM.

**Q.** And the MIC (Candida albicans [28])?
**A.** The MIC was 300 µg/mL (≈ 1040 µM).
